# Patent US12195427B2, “MASP-2 inhibitors and methods of use” (priority 2018, dated 2025)
# Counter-ions that a name gives are not always drawn.
# Legend:
# MASP-2 (CCP1-CCP2-SP) = MASP-2 (CCP1-CCP2-SP) (Homo sapiens (Human), UniProt O00187); assay: Enzymatic Assay for MASP-2 (fluorogenic substrate); type: biochemical
# MASP-2 CCP2-SP = MASP-2 CCP2-SP (Homo sapiens (Human), UniProt O00187); assay: MASP-2 co-crystallization, X-ray crystallography and structure analysis (H-bonds, van der Waals contacts); design: van der Waals contact distance, MASP-2 HIS 483 atom CD2 / van der Waals contact distance, MASP-2 HIS 483 atom NE2 / van der Waals contact distance, SER 654 C to compound atom / van der Waals contact distance, SER 654 O to compound atom / van der Waals contact distance, TRP 655 C to compound atom / van der Waals contact distance, MASP-2 GLY 528 atom CA / van der Waals contact distance TRP 655 atom CZ3 / van der Waals contact distance TRP 655 atom N / van der Waals contact distance TRP 655 atom CE3 / van der Waals contact distance GLY 656 atom C / van der Waals contact distance GLY 656 atom CA / van der Waals contact distance GLY 656 atom O / van der Waals contact distance, MASP-2 TYR 607 atom CD1 / van der Waals contact distance, MASP-2 PRO 606 atom O / d(C3,CA1) / d(CA1,N1)2 / d(H4,O1) / d(H4,O2) / d(O1,O2) / d(CA1,O2) / d(CA6,O1) / d(CA6,O2) / d(CA1,C5) / d(O2,H3) / d(N2,C2) / d(CA5,N2) / d(N2,C4) / d(N2,C6) / d(N2,CA3) / d(N2,O3) / d(O4,H2): unit not given beside the values; settings: for H-bond distance to MASP-2 ASP 627 atom OD2 / H-bond distance to MASP-2 SER 628 atom O / H-bond distance to MASP-2 SER 654 atom O / H-bond distance to MASP-2 SER 657 atom O / H-bond distance to MASP-2 GLY 656 atom N / H-bond distance to MASP-2 GLY 656 atom O: Table A1 (H-Bonds); for H-bond distance to MASP-2 ASP 627 atom OD2: ASP 627 OD2; for H-bond distance to MASP-2 SER 628 atom O: SER 628 O; for H-bond distance to MASP-2 SER 654 atom O: SER 654 O; for H-bond distance to MASP-2 SER 657 atom O: SER 657 O; for van der Waals contact distance, MASP-2 HIS 483 atom CD2 / van der Waals contact distance, MASP-2 HIS 483 atom NE2: Table A2-1; for van der Waals contact distance, MASP-2 amino acid atom to compound atom: Table A2-9, ARG 630, AA atoms CG, CZ; for van der Waals contact distance TRP 655 atom CE3: MASP-2 TRP 655 CE3, compound atom in line below; for van der Waals contact distance TRP 655 atom CZ3: MASP-2 TRP 655 CZ3; for van der Waals contact distance GLY 656 atom O: MASP-2 GLY 656 O; for van der Waals contact distance SER 657 atom C: MASP-2 SER 657 C, columns c12-c13 (inferred); for H-bond distance to MASP-2 GLY 656 atom N: GLY 656 N; for H-bond distance to MASP-2 GLY 656 atom O: GLY 656 O;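 on Ligand-pharmacophore element distance, pharmacophore element C2: distance from averaged pharmacophore element to bound ligand; missing value means element absent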;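 on Ligand-pharmacophore element distance, pharmacophore element C3: distance from averaged pharmacophore element to bound ligand; missing value means element absent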;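 on Ligand-pharmacophore element distance, pharmacophore element C4: distance from averaged pharmacophore element to bound ligand; missing value means element absent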;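 on Ligand-pharmacophore element distance, pharmacophore element C5: distance from averaged pharmacophore element to bound ligand; missing value means element absent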
# How it was run: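 Soaked crystals of recombinant CCP2-SP (E. coli) yield the structures, phased by molecular replacement on 1Q3X pieces. Hydrophobic or nonbonded contacts can also cover atom pairs that are potential hydrogen bonds.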
# Lectin Pathway = Lectin Pathway Activation Assay in Human Serum (mannan-coated ELISA, C3c detection); type: biochemical; settings: 1% human serum
# Protocol: Microtiter ELISA plate was coated with mannan from Saccharomyces cerevisiae (Sigma-Aldrich, M7504) for overnight at 4° C. in coating buffer [15 mM Na2CO3, 35 mM NaHCO3].
# [1] = Table A5-1 pharmacophore: distance between elements, S2/S1 region
# [2] = Table A5-2 pharmacophore distance, S3/S4 region
# [3] = Table A7-1, between pharmacophore elements of the bound compound
# [4] = Table A7-2, between pharmacophore elements of the bound compound
# MASP-2 CCP2-SP, sequence (O00187 445-686): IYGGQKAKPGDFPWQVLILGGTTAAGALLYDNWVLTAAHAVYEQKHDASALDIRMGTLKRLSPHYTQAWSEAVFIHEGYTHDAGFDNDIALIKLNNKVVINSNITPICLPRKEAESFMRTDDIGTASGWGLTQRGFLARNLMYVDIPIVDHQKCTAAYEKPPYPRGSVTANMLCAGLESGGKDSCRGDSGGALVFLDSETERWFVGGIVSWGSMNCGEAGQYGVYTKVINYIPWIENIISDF
# MASP-2 CCP2-SP, sequence (O00187 364-432 partner): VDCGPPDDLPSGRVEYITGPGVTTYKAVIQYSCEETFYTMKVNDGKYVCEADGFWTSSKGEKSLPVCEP
# MASP-2 (CCP1-CCP2-SP), sequence (O00187 445-686): as the sequence (O00187 445-686) above
compound,measurement,setting,value
C[C@H](NC(=O)[C@H](N)CCc1ccccc1)C(=O)NCc1ccc(N)nc1 [compound 1007],Ki,MASP-2 (CCP1-CCP2-SP),< 500 nM
same,H-bond distance to MASP-2 ASP 627 atom OD2,MASP-2 CCP2-SP,3.27
same,H-bond distance to MASP-2 SER 628 atom O,MASP-2 CCP2-SP,2.59
same,H-bond distance to MASP-2 SER 654 atom O,MASP-2 CCP2-SP,2.94
same,H-bond distance to MASP-2 SER 657 atom O,MASP-2 CCP2-SP,2.88
same,"van der Waals contact distance, MASP-2 HIS 483 atom CD2",MASP-2 CCP2-SP,3.38
same,"van der Waals contact distance, MASP-2 PHE 529 atom CD1",MASP-2 CCP2-SP; Table A2-3,3.83
same,"van der Waals contact distance, MASP-2 PHE 529 atom CZ",MASP-2 CCP2-SP; Table A2-3,3.82
same,"van der Waals contact distance, MASP-2 TYR 607 atom CD1",MASP-2 CCP2-SP; Table A2-4,3.84
same,"van der Waals contact distance, MASP-2 amino acid atom to compound atom",MASP-2 CCP2-SP,3.61
same,"van der Waals contact distance, TRP 655 CA to compound atom",MASP-2 CCP2-SP; Table A2-12,3.31
same,van der Waals contact distance GLY 656 atom C,"MASP-2 CCP2-SP; Table A2-13, MASP-2 GLY 656 C",3.74
same,van der Waals contact distance TRP 655 atom CE3,MASP-2 CCP2-SP; Table A2-13,3.69
same,van der Waals contact distance TRP 655 atom CZ3,MASP-2 CCP2-SP; Table A2-13,3.78
same,van der Waals contact distance GLY 656 atom N,"MASP-2 CCP2-SP; Table A2-14, MASP-2 GLY 656 N",3.71
same,van der Waals contact distance GLY 656 atom O,MASP-2 CCP2-SP; Table A2-14,3.85
same,van der Waals contact distance SER 657 atom C,MASP-2 CCP2-SP; Table A2-14,3.87
"Cc1nc(N)ccc1CNC(=O)[C@H](C)NC(=O)[C@H]1C[C@H](Cc2ccc3ccccc3c2)CN1 [compound 1338, (2R,4S)—N—((S)-1-(((6-Amino-2-methylpyridin-3-yl)methyl)amino)-1-oxopropan-2-yl)-4-(naphthalen-2-ylmethyl)pyrrolidine-2-carboxamide]",IC50,Lectin Pathway,50 to 500 nM
same,H-bond distance to MASP-2 ASP 627 atom OD2,MASP-2 CCP2-SP,3.2
same,H-bond distance to MASP-2 GLY 656 atom N,MASP-2 CCP2-SP,3.23
same,H-bond distance to MASP-2 GLY 656 atom O,MASP-2 CCP2-SP,2.78
same,H-bond distance to MASP-2 SER 628 atom O,MASP-2 CCP2-SP,3.04
same,H-bond distance to MASP-2 SER 654 atom O,MASP-2 CCP2-SP,2.99
same,H-bond distance to MASP-2 SER 657 atom O,MASP-2 CCP2-SP,2.93
same,"van der Waals contact distance, MASP-2 HIS 483 atom CD2",MASP-2 CCP2-SP,3.58
same,"van der Waals contact distance, MASP-2 HIS 483 atom NE2",MASP-2 CCP2-SP,3.82
same,"van der Waals contact distance, MASP-2 ALA 527 atom C",MASP-2 CCP2-SP; Table A2-2,3.67
same,"van der Waals contact distance, MASP-2 PHE 529 atom CE2",MASP-2 CCP2-SP; Table A2-3,3.86
same,"van der Waals contact distance, MASP-2 amino acid atom to compound atom",MASP-2 CCP2-SP,3.75
same,"van der Waals contact distance, VAL 653 CG1 to compound atom",MASP-2 CCP2-SP; Table A2-11,3.33
same,"van der Waals contact distance, TRP 655 CA to compound atom",MASP-2 CCP2-SP; Table A2-12,3.4
same,van der Waals contact distance TRP 655 atom CE3,MASP-2 CCP2-SP; Table A2-13,3.83
same,van der Waals contact distance TRP 655 atom CZ3,MASP-2 CCP2-SP; Table A2-13,3.74
same,van der Waals contact distance TRP 655 atom N,"MASP-2 CCP2-SP; Table A2-13, MASP-2 TRP 655 N",3.9
same,"Ligand-pharmacophore element distance, pharmacophore element C2","MASP-2 CCP2-SP; Table A4-1, element C2",0
same,"Ligand-pharmacophore element distance, pharmacophore element C3","MASP-2 CCP2-SP; Table A4-1, element C3",0.12
same,"Ligand-pharmacophore element distance, pharmacophore element C4","MASP-2 CCP2-SP; Table A4-1, element C4",0
same,"Ligand-pharmacophore element distance, pharmacophore element C5","MASP-2 CCP2-SP; Table A4-1, element C5",0
same,"Ligand-pharmacophore element distance, pharmacophore element C6","MASP-2 CCP2-SP; Table A4-1, element C6",0
same,"Ligand-pharmacophore element distance, pharmacophore element C7","MASP-2 CCP2-SP; Table A4-1, element C7",0
same,"Ligand-pharmacophore element distance, pharmacophore element CA1","MASP-2 CCP2-SP; Table A4-1, element CA1",0.55
same,"Ligand-pharmacophore element distance, pharmacophore element CA2","MASP-2 CCP2-SP; Table A4-1, element CA2",0.59
same,"Ligand-pharmacophore element distance, pharmacophore element CA3","MASP-2 CCP2-SP; Table A4-1, element CA3",0
same,"Ligand-pharmacophore element distance, pharmacophore element CA4","MASP-2 CCP2-SP; Table A4-1, element CA4",1.21
same,"Ligand-pharmacophore element distance, pharmacophore element CA5","MASP-2 CCP2-SP; Table A4-1, element CA5",0
same,"Ligand-pharmacophore element distance, pharmacophore element CA6","MASP-2 CCP2-SP; Table A4-1, element CA6",0
same,"d(C3,CA1)",MASP-2 CCP2-SP; [1],2.88
same,"d(CA1,N1)2",MASP-2 CCP2-SP; [1],1.37
same,"d(CA1,O1)",MASP-2 CCP2-SP; [1],4.35
same,"d(CA1,O2)",MASP-2 CCP2-SP; [1],3.80
same,"d(H4,O1)",MASP-2 CCP2-SP; [1],4.33
same,"d(H4,O2)",MASP-2 CCP2-SP; [1],3.75
same,"d(O1,O2)",MASP-2 CCP2-SP; [1],3.35
same,"d(N2,CA2)",MASP-2 CCP2-SP; [2],6.05
same,"d(O2,H3)",MASP-2 CCP2-SP; [2],4.29
same,"d(O2,N2)",MASP-2 CCP2-SP; [2],2.74
same,"a(C3, CA1, O1)",MASP-2 CCP2-SP; Table A6-1 pharmacophore angle,148.99
same,"a(CA1, O1, O2)",MASP-2 CCP2-SP; Table A6-1 pharmacophore angle,105.30
same,"a(O1, O2, H4)",MASP-2 CCP2-SP; Table A6-1 pharmacophore angle,131.78
same,"a(N1, CA1, O1) b)","MASP-2 CCP2-SP; Table A6-1 pharmacophore angle, Methyl-amino-pyridine compounds",173.72
same,"a(O1, O2, H3)",MASP-2 CCP2-SP; Table A6-2 pharmacophore angle,148.03
same,"a(O1, O2, N2)",MASP-2 CCP2-SP; Table A6-2 pharmacophore angle,141.48
same,"a(O2, N2, CA2)",MASP-2 CCP2-SP; Table A6-2 pharmacophore angle,157.11
same,"Pharmacophore torsion angle a(C3, CA1, O1, H4)",MASP-2 CCP2-SP; [3],23.02
same,"Pharmacophore torsion angle a(H4, O1, O2, H3)",MASP-2 CCP2-SP; [3],52.11
same,"Pharmacophore torsion angle a(H4, O1, O2, N2)",MASP-2 CCP2-SP; [3],140.39
same,"Pharmacophore torsion angle a(N1, CA1, O1, H4)",MASP-2 CCP2-SP; [3],−3.32
same,"Pharmacophore torsion angle a(O1, H4, O2, CA1)",MASP-2 CCP2-SP; [3],−85.13
same,"Pharmacophore torsion angle a(O1, O2, N2, CA2)",MASP-2 CCP2-SP; [4],124.64
same,"Pharmacophore torsion angle a(O1, O2, N2, CA4)",MASP-2 CCP2-SP; [4],116.54
"C[C@H](NC(=O)[C@H]1C[C@H](Cc2ccc(-c3ccccc3)cc2)CN1)C(=O)NCc1cnc2[nH]cc(Cl)c2c1 [compound 1356, (2R,4S)-4-([1,1′-Biphenyl]-4-ylmethyl)-N—((S)-1-(((3-chloro-1H-pyrrolo[2,3-b]pyridin-5-yl)methyl)amino)-1-oxopropan-2-yl)pyrrolidine-2-carboxamide]",IC50,Lectin Pathway,50 to 500 nM
"C[C@H](NC(=O)[C@H]1C[C@@H](c2ccccc2)CCN1)C(=O)NCc1ccc(C(=N)N)cc1 [compound 1230, (2R,4S)—N—((S)-1-((4-Carbamimidoylbenzyl)amino)-1-oxopropan-2-yl)-4-phenylpiperidine-2-carboxamide Dihydrochloride]",IC50,Lectin Pathway,< 50 nM
C[C@H](NC(=O)[C@H]1C[C@@H](c2ccccc2)CN1)C(=O)NCc1ccc2c(N)nccc2c1 [compound 1089],Ki,MASP-2 (CCP1-CCP2-SP),< 500 nM
same,H-bond distance to MASP-2 ASP 627 atom OD2,MASP-2 CCP2-SP,2.8
same,H-bond distance to MASP-2 GLY 656 atom N,MASP-2 CCP2-SP,3.3
same,H-bond distance to MASP-2 GLY 656 atom O,MASP-2 CCP2-SP,2.82
same,H-bond distance to MASP-2 SER 654 atom O,MASP-2 CCP2-SP,2.93
same,H-bond distance to MASP-2 SER 657 atom O,MASP-2 CCP2-SP,2.93
same,"van der Waals contact distance, MASP-2 HIS 483 atom CD2",MASP-2 CCP2-SP,3.71
same,"van der Waals contact distance, MASP-2 HIS 483 atom NE2",MASP-2 CCP2-SP,3.83
same,"van der Waals contact distance, MASP-2 PRO 606 atom O",MASP-2 CCP2-SP; Table A2-4,3.4
same,"van der Waals contact distance, SER 654 O to compound atom",MASP-2 CCP2-SP; Table A2-12,3.57
same,van der Waals contact distance TRP 655 atom CE3,MASP-2 CCP2-SP; Table A2-13,3.59
same,van der Waals contact distance GLY 656 atom O,MASP-2 CCP2-SP; Table A2-14,2.95
same,van der Waals contact distance SER 657 atom C,MASP-2 CCP2-SP; Table A2-14,3.86
